Data: ChEMBL document CHEMBL1156812, “Novel synthesis of the hexahydroimidazo[1,5b]isoquinoline scaffold: application to the synthesis of glucocorticoid receptor modulators” (J Med Chem, 2010)

Experiments:
Glucocorticoid receptor [1] = target: T1, Glucocorticoid receptor (Homo sapiens, UniProt P04150); assay: Displacement of GS-red from human glucocorticoid receptor by fluorescent polarization assay
T1 sequence (P04150 whole entry): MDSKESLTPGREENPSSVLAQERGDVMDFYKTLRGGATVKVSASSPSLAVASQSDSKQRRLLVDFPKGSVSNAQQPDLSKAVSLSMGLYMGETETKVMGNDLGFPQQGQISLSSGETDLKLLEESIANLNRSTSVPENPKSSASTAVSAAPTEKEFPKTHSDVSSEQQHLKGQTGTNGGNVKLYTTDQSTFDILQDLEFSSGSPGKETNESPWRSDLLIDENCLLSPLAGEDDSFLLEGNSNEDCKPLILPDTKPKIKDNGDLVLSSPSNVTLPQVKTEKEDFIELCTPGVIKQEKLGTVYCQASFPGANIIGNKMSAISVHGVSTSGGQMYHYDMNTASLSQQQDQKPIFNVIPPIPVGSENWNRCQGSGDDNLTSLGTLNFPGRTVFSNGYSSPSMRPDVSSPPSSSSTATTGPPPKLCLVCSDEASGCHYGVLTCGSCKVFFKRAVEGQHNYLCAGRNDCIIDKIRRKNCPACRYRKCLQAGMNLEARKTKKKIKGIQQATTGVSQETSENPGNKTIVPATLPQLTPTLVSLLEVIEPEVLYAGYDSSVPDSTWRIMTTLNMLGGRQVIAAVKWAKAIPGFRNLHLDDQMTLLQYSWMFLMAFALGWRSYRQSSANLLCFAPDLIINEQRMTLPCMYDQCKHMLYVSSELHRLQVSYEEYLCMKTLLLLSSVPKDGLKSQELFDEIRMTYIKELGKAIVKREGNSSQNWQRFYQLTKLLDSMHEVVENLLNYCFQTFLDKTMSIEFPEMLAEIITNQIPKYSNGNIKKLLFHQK

Androgen receptor = target: T2, Androgen receptor (Homo sapiens, UniProt P10275); assay: Binding affinity to androgen receptor
T2 sequence (P10275 whole entry): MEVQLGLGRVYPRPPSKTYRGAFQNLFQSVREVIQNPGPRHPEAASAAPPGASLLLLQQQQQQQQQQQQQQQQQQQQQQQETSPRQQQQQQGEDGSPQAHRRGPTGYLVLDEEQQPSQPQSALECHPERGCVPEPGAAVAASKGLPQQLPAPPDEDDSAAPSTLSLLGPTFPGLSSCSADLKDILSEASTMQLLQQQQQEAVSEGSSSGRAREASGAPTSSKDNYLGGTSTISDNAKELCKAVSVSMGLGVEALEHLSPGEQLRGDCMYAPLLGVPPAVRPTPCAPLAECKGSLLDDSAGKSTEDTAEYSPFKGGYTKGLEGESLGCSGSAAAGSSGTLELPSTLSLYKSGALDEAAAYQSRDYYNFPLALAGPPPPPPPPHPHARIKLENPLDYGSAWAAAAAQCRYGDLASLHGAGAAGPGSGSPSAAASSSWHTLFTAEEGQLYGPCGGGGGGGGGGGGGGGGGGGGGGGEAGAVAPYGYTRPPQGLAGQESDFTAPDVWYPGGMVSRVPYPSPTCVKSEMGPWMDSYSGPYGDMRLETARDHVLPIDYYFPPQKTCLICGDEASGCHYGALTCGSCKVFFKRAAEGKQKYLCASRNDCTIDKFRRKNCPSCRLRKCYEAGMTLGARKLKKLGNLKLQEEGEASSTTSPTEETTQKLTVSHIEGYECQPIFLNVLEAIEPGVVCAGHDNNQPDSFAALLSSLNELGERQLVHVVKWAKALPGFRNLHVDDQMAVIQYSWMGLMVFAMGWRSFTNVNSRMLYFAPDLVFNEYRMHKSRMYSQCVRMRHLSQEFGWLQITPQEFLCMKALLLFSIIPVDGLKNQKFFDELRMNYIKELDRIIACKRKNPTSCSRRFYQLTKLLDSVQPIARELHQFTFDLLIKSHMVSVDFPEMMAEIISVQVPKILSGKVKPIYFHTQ

Glucocorticoid receptor [2] = target: T1, Glucocorticoid receptor; assay: Transrepression activity at glucocorticoid receptor expressed in human A549 cells assessed as inhibition of IL-1-beta-induced NF-kappaB dependent E-selection promoter activation after 6 hrs by luciferase reporter gene based ELAM assay; assay type: cell-based
Glucocorticoid receptor [3] = target: T1, Glucocorticoid receptor; assay: Transrepression activity at glucocorticoid receptor expressed in human A549 cells assessed as inhibition of PMA-induced AP1 activity after 6 hrs by luciferase reporter gene assay; assay type: cell-based
Glucocorticoid receptor [4] = target: T1, Glucocorticoid receptor; assay: Transactivation of GAL-4 tagged glucocorticoid receptor ligand binding domain expressed in human HeLa cells assessed as NP1 activation by luciferase reporter gene assay; assay type: cell-based
Progesterone receptor = target: T3, Progesterone receptor (Homo sapiens, UniProt P06401); assay: Binding affinity to progesterone receptor
T3 sequence (P06401 whole entry): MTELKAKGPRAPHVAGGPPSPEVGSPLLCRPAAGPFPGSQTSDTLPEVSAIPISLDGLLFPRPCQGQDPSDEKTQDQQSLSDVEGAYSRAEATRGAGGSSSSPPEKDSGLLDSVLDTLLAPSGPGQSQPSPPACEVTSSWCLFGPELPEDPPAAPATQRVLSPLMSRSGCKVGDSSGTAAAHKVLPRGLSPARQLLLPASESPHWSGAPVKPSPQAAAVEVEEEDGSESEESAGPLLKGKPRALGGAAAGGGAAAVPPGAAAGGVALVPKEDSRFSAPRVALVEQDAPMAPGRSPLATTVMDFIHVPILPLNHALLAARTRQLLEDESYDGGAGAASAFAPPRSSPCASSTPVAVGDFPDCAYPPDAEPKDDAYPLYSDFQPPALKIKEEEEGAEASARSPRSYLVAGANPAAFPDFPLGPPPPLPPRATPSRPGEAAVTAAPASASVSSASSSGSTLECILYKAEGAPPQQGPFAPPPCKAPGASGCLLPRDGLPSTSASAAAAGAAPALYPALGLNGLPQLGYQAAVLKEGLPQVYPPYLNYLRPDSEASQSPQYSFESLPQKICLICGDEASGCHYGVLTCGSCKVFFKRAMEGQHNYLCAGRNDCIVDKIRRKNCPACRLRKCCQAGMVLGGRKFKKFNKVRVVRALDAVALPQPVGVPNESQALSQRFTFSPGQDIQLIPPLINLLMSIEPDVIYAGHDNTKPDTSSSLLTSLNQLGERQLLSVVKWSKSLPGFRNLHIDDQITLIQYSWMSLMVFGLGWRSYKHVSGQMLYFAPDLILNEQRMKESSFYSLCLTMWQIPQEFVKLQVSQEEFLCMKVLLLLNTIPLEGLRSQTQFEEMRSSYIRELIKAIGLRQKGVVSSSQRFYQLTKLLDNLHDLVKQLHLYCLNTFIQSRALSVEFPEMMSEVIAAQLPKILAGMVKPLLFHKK

| Structure (SMILES) | Ki (Glucocorticoid receptor [1]) | IC50 (Androgen receptor) | EC50 (Glucocorticoid receptor [2]) | EC50 (Glucocorticoid receptor [3]) | EC50 (Glucocorticoid receptor [4]) | Ki (Progesterone receptor) | EC50 (Glucocorticoid receptor [2]; a549) | EC50 (Glucocorticoid receptor [3]; a549) |
| --- | --- | --- | --- | --- | --- | --- | --- | --- |
| C[C@]12Cc3cnn(-c4ccc(F)cc4)c3C=C1CCC[C@@H]2[C@](C)(O)c1ccsc1 | 0.8 nM | > 4 µM | – | – | – | – | – | – |
| C[C@]12Cc3cnn(-c4ccc(F)cc4)c3C=C1CCC[C@@H]2[C@](C)(O)c1ccc(F)cc1 | 2.5 nM | > 4 µM | – | – | – | – | – | – |
| C[C@]12Cn3cnc(-c4ccc(F)cc4)c3C=C1CCC[C@@H]2[C@](C)(O)c1cccc(C#N)c1 | 1 nM | > 4 µM | 31 nM | 18 nM | > 10000 nM | – | – | – |
| C[C@]12Cn3cnc(-c4ccc(F)cc4)c3C=C1CCC[C@@H]2[C@](C)(O)c1ccsc1 | 1 nM | > 4 µM | 37 nM | 5 nM | > 10000 nM | – | – | – |
| C[C@]12Cn3cnc(-c4ccc(F)cc4)c3C=C1CCC[C@@H]2[C@](C)(O)Cc1ccc(F)cc1 | 11 nM | > 4 µM | 121 nM | 227 nM | 760 nM | – | – | – |
| C[C@]12Cn3cnc(-c4ccc(F)cc4)c3C=C1CCC[C@@H]2[C@](C)(O)c1nccs1 | 3 nM | > 4 µM | 92 nM | 110 nM | 572 nM | – | – | – |
| C[C@]12Cn3cnc(-c4ccc(F)cc4)c3C=C1CCC[C@@H]2[C@](C)(O)c1ccccc1 | 1 nM | > 4 µM | 61 nM | 16 nM | > 5000 nM | – | – | – |
| C[C@]12Cn3cnc(-c4ccc(F)cc4)c3C=C1CCC[C@@H]2[C@](C)(O)C1CCCCC1 | 3.1 nM | > 4 µM | 33 nM | 2 nM | 470 nM | – | – | – |
| Cc1ccc([C@@](C)(O)[C@H]2CCCC3=Cc4c(-c5ccc(F)cc5)ncn4C[C@@]32C)s1 | 1.5 nM | > 4 µM | 18 nM | 28 nM | 272 nM | – | – | – |
| C[C@]12Cc3cnn(-c4ccc(F)cc4)c3C=C1CCCC2[C@@H](O)c1csc2ccccc12 (stereo not given in full) | 1.8 nM | – | – | 1.8 nM | – | – | – | – |
| C[C@]12Cn3cnc(-c4ccc(F)cc4)c3C=C1CCC[C@@H]2[C@](C)(O)c1ccc(C#N)cc1 | 2.5 nM | > 4 µM | 105 nM | 59 nM | > 10000 nM | – | – | – |
| C=CC[C@H](O)C1CCCC2=Cc3c(cnn3-c3ccc(F)cc3)C[C@@]21C (stereo not given in full) | 3.9 nM | > 4 µM | – | 9.3 nM | – | – | – | – |
| C[C@]12Cn3cnc(-c4ccc(F)cc4)c3C=C1CCC[C@@H]2[C@H](O)c1ccc(F)cc1 (stereo in doubt; 18) | 25 nM | – | > 5000 nM | > 5000 nM | – | – | – | – |
| C[C@]12Cn3cnc(-c4ccc(F)cc4)c3C=C1CCC[C@@H]2[C@H](O)c1ccc(F)cc1 (stereo in doubt; 19) | 21 nM | – | 243 nM | 272 nM | – | 451 nM | – | – |

The remaining lines, values ahead:

| Ki (Glucocorticoid receptor [1]) | IC50 (Androgen receptor) | EC50 (Glucocorticoid receptor [2]) | EC50 (Glucocorticoid receptor [3]) | EC50 (Glucocorticoid receptor [4]) | Ki (Progesterone receptor) | EC50 (Glucocorticoid receptor [2]; a549) | EC50 (Glucocorticoid receptor [3]; a549) | Structure (SMILES) |
| --- | --- | --- | --- | --- | --- | --- | --- | --- |
| 7.9 nM | > 4 µM | 130 nM | 34 nM | 1130 nM | – | – | – | CCCC[C@@](C)(O)[C@H]1CCCC2=Cc3c(-c4ccc(F)cc4)ncn3C[C@@]21C |
| 2.5 nM | > 4 µM | 99 nM | 9.5 nM | 1130 nM | – | – | – | Cc1cccc([C@@](C)(O)[C@H]2CCCC3=Cc4c(-c5ccc(F)cc5)ncn4C[C@@]32C)c1 |
| 33 nM | > 4 µM | > 5000 nM | > 5000 nM | – | – | – | – | CO[C@](C)(c1cccs1)[C@H]1CCCC2=Cc3c(-c4ccc(F)cc4)ncn3C[C@@]21C |
| – | > 4 µM | – | – | – | – | – | – | C[C@]12Cn3cnc(-c4ccc(F)cc4)c3C=C1CCC[C@@H]2[C@](C)(O)c1ccncc1 |
| 9 nM | > 4 µM | 133 nM | 132 nM | 876 nM | – | – | – | CC(C)C[C@@](C)(O)[C@H]1CCCC2=Cc3c(-c4ccc(F)cc4)ncn3C[C@@]21C |
| – | > 4 µM | – | – | – | – | – | – | C[C@]12Cn3cnc(-c4ccc(F)cc4)c3C=C1CCC[C@@H]2[C@](C)(O)CCc1ccccc1 |
| 5.2 nM | > 4 µM | – | 31 nM | > 10000 nM | – | – | – | C[C@]12Cn3cnc(-c4ccc(F)cc4)c3C=C1CCC[C@@H]2[C@](C)(O)C(F)(F)F |
| 4 nM | > 4 µM | 11 nM | 11 nM | 253 nM | 409 nM | – | – | C[C@]12Cn3cnc(-c4ccc(F)cc4)c3C=C1CCC[C@@H]2[C@](C)(O)c1ccc(Cl)s1 |
| – | > 4 µM | – | – | – | – | – | – | C[C@]12Cn3cnc(-c4ccc(F)cc4)c3C=C1CCC[C@@H]2[C@](C)(O)C1CCOCC1 |
| 2 nM | > 4 µM | 31 nM | 25 nM | 920 nM | – | – | – | Cc1ccccc1[C@@](C)(O)[C@H]1CCCC2=Cc3c(-c4ccc(F)cc4)ncn3C[C@@]21C |
| 2 nM | > 4 µM | 44 nM | 20 nM | – | – | – | – | C[C@]12Cn3cnc(-c4ccc(F)cc4)c3C=C1CCC[C@@H]2[C@](C)(O)c1ccc(F)cc1 |
| – | > 4 µM | – | – | – | – | – | – | C[C@]12Cn3cnc(-c4ccc(F)cc4)c3C=C1CCC[C@@H]2[C@](C)(O)c1cccnc1 |
| – | > 4 µM | – | – | – | – | – | – | C[C@]12Cn3cnc(-c4ccc(F)cc4)c3C=C1CCC[C@@H]2[C@](C)(O)c1ccccn1 |
| 2 nM | > 4 µM | 41 nM | 52 nM | – | 230 nM | – | – | C[C@]12Cn3cnc(-c4ccc(F)cc4)c3C=C1CCC[C@@H]2[C@](C)(O)c1cccs1 |
| 2.6 nM | > 4 µM | 49 nM | 37 nM | > 5000 nM | – | – | – | C[C@]12Cn3cnc(-c4ccc(F)cc4)c3C=C1CCC[C@@H]2[C@](C)(O)C1CC1 |
| 8 nM | – | > 5000 nM | > 2500 nM | – | – | – | – | C=CCC(O)C1CCCC2=Cc3c(-c4ccc(F)cc4)ncn3CC21C (single isomer, unassigned; diastereomer 1) |
| 9 nM | – | – | – | – | – | > 5000 nM | > 2500 nM | C=CCC(O)C1CCCC2=Cc3c(-c4ccc(F)cc4)ncn3CC21C (single isomer, unassigned; diastereomer 2) |
